This is an account of results in US20060025474A1, “Bisphenyl compounds useful as vitamin D3 receptor agonists” (priority 2004, published 2006).

SMILES strings stand for the structures.

This data set has as its system ECAC2 mRNA in Caco-2 cells. It counts as cell-based. The procedure: The mRNA Expression Assay of ECAC2 in Caco-2 Cells
The dispersed cells were plated in 48-well plate at a concentration of 6.3×10^4 cells/well and incubated for 4 days at 37° C. The culture medium (Dulbecco's Modified Eagle Medium (D-MEM) without NaHCO3 with 44 mM NaHCO3, 1 mM non-essential amino acids, and 2 mM L-glutamine, 90%; fetal bovine serum, 10%) was then replaced with the same medium containing various concentrations of LG190178 (the compound disclosed in WO00/10958 and the corresponding U.S. Pat. No. 6,218,430 B1) or the compounds of the present invention, and cells were cultured for 1 day at 37° C. The culture medium containing the compounds was changed twice per day.
Total RNA Isolation from Caco-2 Cell
Total RNA was isolated from Caco-2 cell following ABI PRISM™ 6100 Nucleic Acid PrepStation protocol from Applied Biosystems.
Real Time RT-PCR Assay of ECAC2
ECAC2 mRNA expression was determined using TaqMan One-step RT-PCR Master Mix Reagents Kit and PRISM7000 systems from Applied Biosystems.
Primer information and cycle conditions are 1)ECAC2, forward 5′-[…]-3′, reverse 5′-GTCCTCTGTCTGGMGATGA-3′, Taqman probe 5′-[…]-3′, 55 cycles, annealing temperature (Ta)=60° C.; 2)GAPDH, forward 5′-GMGGTGMGGTCGGAGTC-3′, reverse 5′-GMGATGGTGATGGGATTTC-3′, Taqman probe 5′-[…]-3′, 55 cycles, Ta=60° C. ECAC2 mRNA values were normalized for the expression of GAPDH mRNA within each sample.
Comparison of ECAC2 mRNA Value
The EC50 values of ECAC2 mRNA values were analyzed by Emax models. The ECAC2 mRNA ratio was calculated as the ratio of the EC50 value of the compounds to that of LG190178. ECAC2 is a channel-like transporter mediating intestinal calcium absorption. It is described in J Biol Chem. Aug. 6, 1999; 274(32):22739-46 for example.
With `CCc1cc(C(CC)(CC)c2ccc(C(=O)N[C@H](C)C(=O)O)s2)ccc1OCC(C)(O)C(C)(C)C` (single isomer, unassigned) [Compound A, reference compound], the “ECaC-2 mRNA induction activity in Caco-2 cells” value (“ECaC-2 mRNA induction activity” for short) came to 123%.

With `CCc1cc(C(CC)(CC)c2ccc(C(=O)N[C@H](C)C(=O)O)s2)ccc1OCC(C)(O)C(C)(C)C` (single isomer, unassigned) [Compound B, reference compound], the “ECaC-2 mRNA induction activity” value was 15%.

Consider `CCc1cc(C(CC)(CC)c2ccc(C(=O)N[C@@H](C)C(=O)O)s2)ccc1OCC(C)(O)C(C)(C)C` (single isomer, unassigned) [Compound C, reference compound], for which the “ECaC-2 mRNA induction activity” value is reported as 34%.

In the case of `CCc1cc(C(CC)(CC)c2ccc(C(=O)N[C@@H](C)C(=O)O)s2)ccc1OCC(C)(O)C(C)(C)C` (single isomer, unassigned) [Compound D, reference compound], the “ECaC-2 mRNA induction activity” value came out at 14%.

For the molecule `C=C1/C(=C\C=C2/CCC[C@]3(C)[C@@H]([C@H](C)CCCC(C)(C)O)CC[C@@H]23)C[C@@H](O)C[C@@H]1O` [1,25(OH)2D3, reference compound], the “ECaC-2 mRNA induction activity” value is on record as 556%.

On to `CCC(O)(/C=C/c1ccc(C(CC)(CC)c2ccc(OC[C@@H](O)CCC(=O)O)c(C)c2)cc1C)CC` [Example 1, (S)-5-(4-{1-ethyl-1-[4-((E)-3-ethyl-3-hydroxy-pent-1-enyl)-3-methyl-phenyl]-propyl}-2-methyl-phenoxy)-4-hydroxy-pentanoic acid], for which the “ECaC-2 mRNA induction activity” value was 36%.

With `CCC(CC)(c1ccc(C#CC(O)(C(F)(F)F)C(F)(F)F)c(C)c1)c1ccc(OC[C@@H](O)CCC(=O)O)c(C)c1` [Example 2, (S)-5-(4-{1-ethyl-1-[3-methyl-4-(4,4,4-trifluoro-3-hydroxy-3-trifluoromethyl-but-1-ynyl)-phenyl]-propyl}-2-methyl-phenoxy)-4-hydroxy-pentanoic acid], the “ECaC-2 mRNA induction activity” value worked out at 49%.

For the molecule `CCC(CC)(c1ccc(C#CC(O)C(C)(C)C)c(C)c1)c1ccc(OC[C@@H](O)CCC(=O)O)c(C)c1` (stereo partly drawn) [Example 27, 5-(4-{1-ethyl-1-[4-(3-hydroxy-4,4-dimethyl-pent-1-ynyl)-3-methyl-phenyl]-propyl}-2-methyl-phenoxy)-4(S)-hydroxy-pentanoic acid], the “ECaC-2 mRNA induction activity” value came out at 114%.

On to `CCC(CC)(c1ccc(/C=C/C(O)C(C)(C)C)c(C)c1)c1ccc(OC[C@@H](O)CCC(=O)O)c(C)c1` (stereo partly drawn) [Example 28, 5-(4-{1-ethyl-1-[4-((E)-3-hydroxy-4,4-dimethyl-pent-1-enyl)-3-methyl-phenyl]-propyl}-2-methyl-phenoxy)-4(S)-hydroxy-pentanoic acid], for which the “ECaC-2 mRNA induction activity” value is 2093%.

As to `CCC(CC)(c1ccc(/C=C/C(O)(C(F)(F)F)C(F)(F)F)c(C)c1)c1ccc(OC[C@@H](O)CCC(=O)O)c(C)c1` [Example 30, (S)-5-(4-{1-ethyl-1-[3-methyl-4-((E)-4,4,4-trifluoro-3-hydroxy-3-trifluoromethyl-but-1-enyl)-phenyl]-propyl}-2-methyl-phenoxy)-4-hydroxy-pentanoic acid], the “ECaC-2 mRNA induction activity” value is listed as 1777%.

In the case of `CCC(CC)(c1ccc(CCC(O)(C(F)(F)F)C(F)(F)F)c(C)c1)c1ccc(OC[C@@H](O)CCC(=O)O)c(C)c1` [Example 31, (S)-5-(4-{1-ethyl-1-[3-methyl-4-(4,4,4-trifluoro-3-hydroxy-3-trifluoromethyl-butyl)-phenyl]-propyl}-2-methyl-phenoxy)-4-hydroxy-pentanoic acid], the “ECaC-2 mRNA induction activity” value is given as 161%.

As to `CCC(CC)(c1ccc(/C=C/C2(O)CCCC2)c(C)c1)c1ccc(OC[C@@H](O)CCC(=O)O)c(C)c1` [Example 35, (S)-5-[4-(1-ethyl-1-{4-[(E)-2-(1-hydroxy-cyclopentyl)-vinyl]-3-methyl-phenyl}-propyl)-2-methyl-phenoxy]-4-hydroxy-pentanoic acid], the “ECaC-2 mRNA induction activity” value amounted to 538%.
